Entries after “also recorded” stand apart in the source; their conditions may differ.
Columns and labels:
[1] = system: Neonatal Yorkshire/Landrace cross bred piglets; experiment: Duodenal mucosal resistance (Ussing chamber), PN-fed neonatal piglets; format: in vivo, pig; parameters: key to Duodenal Mucosal Resistance (Ussing chamber): +++ indicate P < 0.01; ++ indicates P < 0.05; + indicates positive trends; = denotes no significant P value; − denotes negative trends; key to Duodenal mucosal resistance, Grouping (Fisher's LSD test): Groups that do not share a letter are significantly different; ab: Groups that do not share a letter are significantly different; b: Groups that do not share a letter are significantly different; conditions: for Mean duodenal mucosal resistance: N 12; for Duodenal mucosal resistance, Grouping (Fisher's LSD test): PN group a, EN group b; for Duodenal Mucosal Resistance (Ussing chamber): compared to standard PN (s-PN)
Description: It is known also that there is a relationship between intestinal epithelial integrity and intestinal health (Thomson et al., The Ussing chamber system for measuring intestinal permeability in health and disease, BMC Gastroenterology 2019; 19:98). Impairment of barrier function has been linked to intestinal diseases such as, for example, ulcerative colitis and Crohn's disease. The so-called Ussing system offers an ex vivo measurement of the permeability or duodenal mucosal resistance. The system allows to measure said duodenal mucosal (transepithelial) resistance (TER), which can be determined to give an overall measurement of gut integrity. A low TER value is indicative of increased permeability. Prior studies have shown that decreased TER under inflammatory conditions was associated with down regulation of “sealing” tight junctional proteins. Accordingly, determining epithelial integrity by means of the Ussing chamber constituted one option to assess the influence of various nutritional options (e.g. EN vs PN) and various PN compositions (see Example 3.5) on gut health and specifically on local inflammatory incidents.
(§1) Neonatal Yorkshire/Landrace cross bred piglets (n=72; six at a time from the same litter, repeating 12 times) were obtained from Oak Hill Genetics (Ewing, Ill.) after 48-hour sow reared for colostrum consumption and iron supplementation.
Duodenal mucosal resistance was determined according to known methods and according to Tappenden et al., Short-Chain Fatty Acid-Supplemented Total Parenteral Nutrition Enhances Functional Adaptation to Intestinal Resection in Rats. Gastroenterology 1997; 112:792-802. Pieces of intestine (1 cm^2) were cut out, and the tissue was mounted as flat sheets in incubation chambers containing oxygenated Krebs' bicarbonate buffer (pH 7.4) at 37° C. Tissue discs were preincubated in this buffer for 15 minutes to allow equilibration at this temperature. After preincubation, the chambers were transferred to other beakers containing [^3H]inulin and various 14C probe molecules in oxygenated Krebs' bicarbonate (pH 7.4 and 37° C.). The concentration of solutes was 4, 8, 16, 32, or 64 mmol/L for D-glucose and 16 mmol/L for L-glucose. The preincubation and incubation solutions were mixed at identical stirring rates with circular magnetic bars, and the stirring rates were adjusted by means of a strobe light. A stirring rate of 600 rpm was selected to achieve low effective resistance of the intestinal unstirred water. The experiment was terminated by removing the chambers and quickly rinsing the tissue in cold saline for approximately 5 seconds. The exposed mucosal tissue was then cut out of the chamber with a circular steel punch. For all probes, the tissue was dried overnight in an oven at 55° C. The dry weight of the tissue was determined, the sample was saponified with 0.75N NaOH, scintillation fluid was added (Beckman Ready Solv HP; Beckman, Mississauga, ON), and radioactivity was determined by means of […] an external standardization technique to correct for variable quenching of the two isotopes. The mucosal weight was determined after scraping of the intestine from adjacent samples not used for uptake studies. The weight of the mucosa in the samples used to measure uptake was determined by multiplying the dry weight of the intestinal sample by the percentage of the intestinal wall comprised of mucosa.

[2] = system: sIgA; experiment: IgA quantification (jejunal sIgA, ELISA); format: in vivo, pig; parameters: key to IgA: + denotes a positive effect (compared to standard PN); ++ a very positive effect; − denotes no difference; conditions: for IgA: compared to standard PN; for Jejunal sIgA Concentration: compared to standard PN (s-PN)
Description: as §1
Small intestine probes for IgA level determination were obtained by flushing the small intestine with chilled HBSS (Hank's Balanced Salt Solution). Nasal and bronchoalveolar washings for measurement of respiratory tract IgA levels were obtained by lavage with 1 mL phosphate-buffered saline solution under anesthesia. The washings were stored in a −80° C. freezer until IgA analysis. IgA was measured in small intestinal and respiratory tract washings by sandwich enzyme-linked immunosorbent assay using a polyclonal goat anti-mouse IgA (Sigma) to coat the plate, a purified mouse IgA (Zymed Laboratories, San Francisco, Calif.) as the standard, and a horseradish peroxidase-conjugated goat anti-mouse IgA (Sigma).

[3] = system: Neonatal Yorkshire/Landrace cross bred piglets; experiment: Brain structure development by MRI; format: in vivo, pig; parameters: key: + denotes a positive effect (compared to standard PN); ++ a very positive effect; − denotes no difference; conditions: compared to standard PN
Description: On study day 9, the piglets were submitted to Magnetic Resonance Imaging (MRI) using an Agilent 9.4 Tesla MRI system (Santa Clara, Calif.) to assess brain structural development and body composition. Heart rate and respiration were monitored during the entire MRI scan. For anatomic assessment of the brain targeting the hippocampus, images were obtained using a 3D T1-weighted magnetization prepared gradient-echo sequence: repetition time=1,900 ms; echo time=2.48 ms; inversion time=900 ms, flip angle=9°, matrix=256×256 (interpolated to 512×512), slice thickness=1.0 mm. For body composition assessment, a multi-slice, spin-echo technique was used to image the truncal area (longissimus fat/muscle): echo time=20 ms; recovery time=400 ms with four-signal averaging. […] Total scanning time was approximately 60 minutes to include both brain and body composition scanning. The MRI images were analyzed using OsiriX (Bernex, Switzerland). […] The average body weight and abdominal girth of the piglets in the Study Groups was also monitored.

[4] = Stability of butyrate derivative compositions (sterilization, shelf-life); conditions: for free butyric acid released during the sterilization of the bags: lipid chamber, GC-FID

Row | Compound | Mean duodenal mucosal resistance ([1]; 10 mmol/L TPN (Groups A, C, D)) | Duodenal mucosal resistance, Grouping (Fisher's LSD test) ([1]; 10 mmol/L TPN (Groups A, C, D)) | duodenal mucosal resistance, in words ([1]; 10 mmol/L TPN (Groups A, C, D), listed as D) | IgA ([2]; 10 mmol/L in PN) | Brain ([3]; 10 mmol/L in PN) | free butyric acid released during the sterilization of the bags [4] | duodenal mucosal resistance, in words ([1]; 10 mmol/L TPN (Groups A, C, D)) | Duodenal Mucosal Resistance (Ussing chamber) ([1]; 10 mmol/L) | duodenal mucosal resistance, in words ([1]; 30 mmol/L TPN (Group B)) | Mean duodenal mucosal resistance ([1]; 30 mmol/L TPN (Group B)) | Duodenal mucosal resistance, Grouping (Fisher's LSD test) ([1]; 30 mmol/L TPN (Group B)) | Duodenal Mucosal Resistance (Ussing chamber) ([1]; 30 mmol/L) | Jejunal sIgA Concentration ([2]; 10 mmol/L) | IgA ([2]; 30 mmol/L in PN) | Jejunal sIgA Concentration ([2]; 30 mmol/L) | Brain ([3]; 30 mmol/L in PN) | duodenal mucosal resistance, in words ([1]; 10 mmol/L TPN (Groups A, C, D), listed as C) | stable shelf-life ([4]; 25° C. and 40% relative humidity (RH), in an amino acid formulation) | stability during production and sterilization ([4]; amino acid chamber / amino acid formulation) | concentration at which aqueous composition is producible and stable ([4]; aqueous arginine butyrate composition)
1 | CCCCCCCCCCCCCCCC(=O)OCC(COC(=O)CCC)OC(=O)CCCCCCCCCCCCCCC (stereo not shown) [1,2-Dipalmitoyl 3-butyryl glycerol] | 15.8264 | ab | significantly different from the PN; also recorded: almost as good as in Group E | ++ | − | only very limited amounts |  |  |  |  |  |  |  |  |  |  |  |  |  | 
2 | CCCC(=O)OCC(COC(=O)CCC)OC(=O)CCC [Tributyrin] | 21.8442 | ab |  | ++ | − | only very limited amounts | significantly different from the PN | = | significantly different from the PN | 16.0234 | ab | = | ++^5 (++ indicates P < 0.05) | ++ | ++^5 (++ indicates P < 0.05) | − |  |  |  | 
3 | L-arginine, butanoate (3:4) [Arginine butyrate] | 8.2593 | b |  |  | − |  | significantly lower loss of mucosal resistance compared to the other intervention groups | ++^2 (++ indicates P < 0.05) |  |  |  |  | +++^3 (+++ indicate P < 0.01) |  |  |  | significantly different from the PN | at least 12 months | stable during production, sterilization | up to 5500 mg/L

From patent publication US20220160669A1, “PARENTERAL NUTRITION FORMULATION” (BAXTER INTERNATIONAL INC., priority 2020, published 2022)
